Biological target: T1, human AT2R (Homo sapiens, UniProt P50052)
T1 construct: host or cells: HEK-293
T1 sequence (P50052 1-363): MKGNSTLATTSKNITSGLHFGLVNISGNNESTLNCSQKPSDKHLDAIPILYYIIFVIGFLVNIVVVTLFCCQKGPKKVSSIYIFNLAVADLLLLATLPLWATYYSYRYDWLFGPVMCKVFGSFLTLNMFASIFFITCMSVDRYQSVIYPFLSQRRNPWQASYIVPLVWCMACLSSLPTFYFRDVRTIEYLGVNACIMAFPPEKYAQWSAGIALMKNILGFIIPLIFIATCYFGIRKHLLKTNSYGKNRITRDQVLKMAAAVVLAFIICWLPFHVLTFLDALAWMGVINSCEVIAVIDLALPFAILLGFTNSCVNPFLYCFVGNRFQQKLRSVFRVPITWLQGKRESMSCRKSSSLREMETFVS
Type: binding
Settings: HEK-293 cell membranes

Row | SMILES | Ki [nM]
1 | CCCc1nc(-c2ccc(Cn3ccnc3C(C)O)cc2)c(S(=O)(=O)NC(=O)OC)s1 (centres unmarked) [Example 25, Methyl ((4-(4-((2-(1-hydroxyethyl)-1H-imidazol-1-yl)methyl)phenyl)-2-propylthiazol-5-yl)sulfonyl)carbamate] | 1600
2 | COC(=O)NS(=O)(=O)c1ccc(CC(C)C)cc1-c1ccc(Cn2ccnc2C(C)C)cc1 [Example 36, Methyl ((5-isobutyl-4′-((2-(isopropan-2-yl)-1H-imidazol-1-yl)methyl)-[1,1′-biphenyl]-2-yl)sulfonyl)carbamate] | 3.26
3 | CCCCOC(=O)NS(=O)(=O)c1ccc(CC(C)C)cc1-c1ccc(Cn2ccnc2C(C)C)cc1 [Example 37A, Butyl ((5-isobutyl-4′-((2-(isopropan-2-yl)-1H-imidazol-1-yl)methyl)-[1,1′-biphenyl]-2-yl)sulfonyl)carbamate] | 2.22
4 | CCCCOC(=O)NS(=O)(=O)c1ccc(CC(C)C)cc1-c1ccc(Cn2ccnc2C2CC2)cc1 [Example 38A, Butyl ((5-isobutyl-4′-((2-(cyclopropan-2-yl)-1H-imidazol-1-yl)methyl)-[1,1′-biphenyl]-2-yl)sulfonyl)carbamate] | 5.64
5 | COC(=O)NS(=O)(=O)c1ccc(CC(C)C)cc1-c1ccc(Cn2ccnc2C2CC2)cc1 [Example 39A, Methyl ((5-isobutyl-4′-((2-(cyclopropan-2-yl)-1H-imidazol-1-yl)methyl)-[1,1′-biphenyl]-2-yl)sulfonyl)carbamate] | 4.8
6 | CCCCOC(=O)NS(=O)(=O)c1sc(CC(C)C)cc1-c1ccc(Cn2ccnc2C(C)(C)O)cc1 [Example 40A] | 9.62
7 | COC(=O)NS(=O)(=O)c1sc(CC(C)C)cc1-c1ccc(Cn2ccnc2C(C)(C)O)cc1 [Example 41] | 3.08
8 | CCCCOC(=O)NS(=O)(=O)c1sc(CC(C)C)cc1-c1ccc(Cn2ccnc2C(C)(C)F)cc1 [Example 42] | 1.66
9 | COC(=O)NS(=O)(=O)c1sc(CC(C)C)cc1-c1ccc(Cn2ccnc2C(C)(C)F)cc1 [Example 43] | 3.74
10 | COCCOC(=O)NS(=O)(=O)c1sc(CC(C)C)cc1-c1ccc(Cn2ccnc2C(C)(C)C)cc1 [Example 44] | 2.54
11 | CCCCOC(=O)NS(=O)(=O)c1sc(CCC)nc1-c1ccc(Cn2ccnc2C(C)(C)F)cc1 [Example 45, Butyl ((4-(4-((2-(2-fluoropropan-2-yl)-1H-imidazol-1-yl)methyl)phenyl)-2-propylthiazol-5-yl)sulfonyl)carbamate] | > 1000
12 | CCCc1nc(-c2ccc(Cn3ccnc3C(C)(C)F)cc2)c(S(=O)(=O)NC(=O)OC)s1 [Example 46, Methyl ((4-(4-((2-(2-fluoropropan-2-yl)-1H-imidazol-1-yl)methyl)phenyl)-2-propylthiazol-5-yl)sulfonyl)carbamate] | > 1000
13 | CCCCOC(=O)NS(=O)(=O)c1sc(CC(C)C)nc1-c1ccc(Cn2ccnc2C(C)(C)F)cc1 [Example 47, Butyl ((4-(4-((2-(2-fluoropropan-2-yl)-1H-imidazol-1-yl)methyl)phenyl)-2-isobutylthiazol-5-yl)sulfonyl)carbamate] | 56
14 | COC(=O)NS(=O)(=O)c1sc(CC(C)C)nc1-c1ccc(Cn2ccnc2C(C)(C)F)cc1 [Example 48, Methyl ((4-(4-((2-(2-fluoropropan-2-yl)-1H-imidazol-1-yl)methyl)phenyl)-2-isobutylthiazol-5-yl)sulfonyl)carbamate] | 475
